Assay results: US7122533B2, “Cosalane compounds and methods for their use” (The United States of America as represented by the …, priority 1999, dated 2006)
pIC50: −log10 of the molar value. Read-outs that look alike come from different tables or passages of the source.

Assays:
Format in all cases: cell-based
[1] = test system: human monocytes (RANTES-induced migration); test: RANTES-induced monocyte migration (micro-chemotaxis chamber); settings: for IC50: Homo sapiens, Monocyte, ≦ 5% standard error, NA = not active; for activity as inhibitors of RANTES-induced migration: discussion of Table 1
Method: (§1) Human embryonic kidney cells 293 (HEK-293) transfected to express human CCR1, CCR3, or CCR5 receptors were cultured in Dulbecco's Modified Eagles Medium (DMEM, Biowhiftaker, Walkersville, Md.) containing 10% Fetal Bovine Serum (FBS, Hyclone, Logan, Utah), 2 mM glutamine and 100 U/ml penicillin and streptomycin (Quality Biologicals, Gaithersburg, Md.). Peripheral blood mononuclear cells were isolated from fresh normal donor apheresis packs by centrifugation over Ficoll. Monocytes were enriched by 85–95% using percoll fractionation (Pharmacia, Piscataway, N.J.).
(§2) Monocyte chemotaxis was performed as previously described [Wang (1993) J. Immunol. 150:3022–3029]. Briefly, monocytes were resuspended in binding media (RPMI-1640 media containing 1% BSA, 25 mM HEPES, pH 8.0) at 1–2×10^6 cells/ml. Chemokines, diluted in binding media, were mixed with cosalane or the indicated cosalane analog and placed in the lower wells of a micro-chemotaxis chamber (Neuro Probe, Cabin John, Md.). Five micrometer polyvinyl-free polycarbonate membranes were placed over the chemokine mixtures. After the micro-chemotaxis chamber was assembled, 50 μl of cells were placed in the upper wells. The filled chemotaxis chambers were incubated in a humidified CO2 incubator for 90 minutes.
(§3) After incubating, the membranes were removed from the chemotaxis chamber assembly followed by gently removing the cells from the upper side of the membrane. Then cells on the lower side of the membrane were stained.
(§4) The number of cells migrating to the chemokine mixtures was determined for binding media alone, and chemokine treated and untreated cells. HEK-293 cells transfected to express human CCR1, CCR3 or CCR5 receptors were resuspended in binding media at 7.5×10^5 cells/ml. Ten μm polyvinyl-free polycarbonate membranes (Neuro Probe) were treated with 47 ug/ml rat tail collagen type 1 (Collaborative Biomedical Products, Bedford, Md.) in RPMI-1640 overnight, dried and placed over the chemoattractants. The assembled chemotaxis chambers were incubated in a humidified CO2 incubator for 5.5–6 hours. After the incubation, the membranes were removed from the chemotaxis chamber assembly followed by gently removing cells from the upper side of the membrane. The stained and dried membrane was mounted and the cells on the underside of the membrane were counted at 200× magnification. The results are reported as the average number of cells per high powered field at a given chemokine concentration±standard deviation.

human CCR1 [2] = biological target: T1, human CCR1 (Homo sapiens, UniProt P32246); test: RANTES-induced CCR1/HEK-293 transfectant migration; settings: for IC50: ≦ 5% standard error, NA = not active, read-out: IC50 (μM) RANTES-Induced CCRI/HEK Migration
T1 construct: expressed in transfected cells; host or cells: HEK-293
T1 sequence (P32246 1-355): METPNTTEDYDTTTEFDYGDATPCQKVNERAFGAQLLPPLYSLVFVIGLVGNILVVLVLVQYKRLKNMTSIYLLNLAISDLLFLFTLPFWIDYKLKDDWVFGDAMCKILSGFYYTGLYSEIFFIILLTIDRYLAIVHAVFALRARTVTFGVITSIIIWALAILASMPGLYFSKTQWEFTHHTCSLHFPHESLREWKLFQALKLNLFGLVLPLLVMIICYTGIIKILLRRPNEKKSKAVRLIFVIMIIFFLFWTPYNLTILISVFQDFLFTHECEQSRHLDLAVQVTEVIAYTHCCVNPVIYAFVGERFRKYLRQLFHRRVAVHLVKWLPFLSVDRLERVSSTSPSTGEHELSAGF
Method: as §1, with “Ficoll.” for “Ficoll. Monocytes were enriched by 85–95% using percoll fractionation (Pharmacia, Piscataway, N.J.).”
as §4, with “magnification.” for “magnification. The results are reported as the average number of cells per high powered field at a given chemokine concentration±standard deviation.”

human CCR1 [3] = biological target: T1, human CCR1; test: MIP1α-induced migration of CCR1 transfectants; settings: compound at 1 μM, data not shown
Method: as §1, §4
(§5) The ability of compound 3 to inhibit RANTES-induced migration of human embryonic kidney (HEK) cells transfected to express individual chemokine receptors was initially tested. Although the cosalane analog 3 (1 μM) had no effect on RANTES-induced migration of CCR5 transfectants, it inhibited 50% of RANTES-induced CCR1 transfectant migration (FIG. 2). In contrast, the MIP1α- and MIP1β-induced migration of CCR1 transfectants was not inhibited by compounds 1, 2 or 3 when tested at concentrations of 1 μM (data not shown).

human CCR1 [4] = biological target: T1, human CCR1; test: MIP1β-induced migration of CCR1 transfectants; settings: compound at 1 μM, data not shown
Method: as §1, §4, §5

[5] = test system: MCP-4/CCR2-mediated monocyte migration; test: MCP-4-induced human monocyte migration; settings: FIG. 3
Method: as §2, §3, §4
Although MCP-4 is known to bind to CCR2 and CCR3, fresh primary human monocytes only express high levels of CCR2.

human CCR3 = biological target: T2, human CCR3 (Homo sapiens, UniProt P51677); test: eotaxin-induced CCR3/HEK-293 cell migration; settings: eotaxin-induced CCR3/HEK-293 migration, figures
T2 construct: expressed in transfected cells; host or cells: HEK-293
T2 sequence (P51677 1-355): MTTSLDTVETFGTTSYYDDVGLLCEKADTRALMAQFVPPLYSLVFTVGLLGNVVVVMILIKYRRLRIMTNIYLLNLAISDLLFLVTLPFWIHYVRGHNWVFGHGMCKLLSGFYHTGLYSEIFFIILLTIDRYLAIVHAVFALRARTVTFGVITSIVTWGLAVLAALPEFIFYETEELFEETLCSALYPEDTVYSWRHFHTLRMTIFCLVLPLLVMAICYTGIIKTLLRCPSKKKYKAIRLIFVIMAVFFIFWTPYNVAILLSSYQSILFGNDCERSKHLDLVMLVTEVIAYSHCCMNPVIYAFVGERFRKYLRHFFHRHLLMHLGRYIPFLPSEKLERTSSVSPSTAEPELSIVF
Method: as §1, §4

[6] = test system: human monocytes (acetylated RANTES-induced migration); test: monocyte migration induced by acetylated (modified) RANTES; settings: acetylated RANTES 50–1000 ng/mL, FIG. 6
Method: as §2, §3
as §4, with “deviation. […]” for “deviation.”

[7] = test system: human monocytes (MIP1-α-induced migration); test: MIP1-α-induced monocyte migration; settings: compound at 1 μM, chemokine at 2.5 ng/ml, data not shown
Method: as §2, with “Chemokines, diluted in binding media, were mixed with cosalane or the indicated cosalane analog and placed in the lower wells of a micro-chemotaxis chamber (Neuro Probe, Cabin John, Md.).” left out
as §3
as §4, with “magnification.” for “magnification. The results are reported as the average number of cells per high powered field at a given chemokine concentration±standard deviation.”
(§6) It is noted that both MIP1-α and MIP1-β are ligands for CCR1, CCR5, and D6 (8).

[8] = test system: human monocytes (MIP1-β-induced migration); test: MIP1-β-induced monocyte migration; settings: compound at 1 μM, chemokine at 2.5 ng/ml, data not shown
Method: as §2, with “Chemokines, diluted in binding media, were mixed with cosalane or the indicated cosalane analog and placed in the lower wells of a micro-chemotaxis chamber (Neuro Probe, Cabin John, Md.).” left out
as §3
as §4, with “magnification.” for “magnification. The results are reported as the average number of cells per high powered field at a given chemokine concentration±standard deviation.”
as §6

Row | Compound | IC50 [1] | activity as inhibitors of RANTES-induced migration [1] | IC50 (human CCR1 [2]) | inhibition of CCL11 (eotaxin) interaction with CCR3 (human CCR3) | also measured
1 | CC(C)CCCC(C)[C@H]1CCC2C3CCC4C[C@@H](CCC=C(c5cc(Cl)c(OCc6ccc(-c7cccc(C(=O)O)c7)cc6)c(C(=O)O)c5)c5cc(Cl)c(OCc6ccc(-c7cccc(C(=O)O)c7)cc6)c(C(=O)O)c5)CC[C@]4(C)C3CC[C@@]21C (stereo partly drawn) [Compound 6] | 3 µM | retain activity | 9.1 µM |  | 
2 | CC(C)CCCC(C)[C@H]1CCC2C3CCC4C[C@@H](CCC=C(c5cc(Cl)c(OCc6cccc([N+](=O)[O-])c6)c(C(=O)O)c5)c5cc(Cl)c(OCc6cccc([N+](=O)[O-])c6)c(C(=O)O)c5)CC[C@]4(C)C3CC[C@@]21C (stereo partly drawn) [Compound 7] | 3.5 µM | retain activity |  |  | pIC50 (human CCR1 [2]): 5.24
3 | CC(C)CCC[C@@H](C)[C@H]1CC[C@H]2[C@@H]3CC[C@H]4C[C@@H](CCC=C(c5cc(Cl)c(O)c(C(=O)O)c5)c5cc(Cl)c(O)c(C(=O)O)c5)CC[C@]4(C)[C@H]3CC[C@]12C [Compound 1, cosalane] | 0.76 µM |  | 0.26 µM | inhibit | inhibition of MIP1α-induced migration of CCR1 transfectants (human CCR1 [3]): not inhibited; inhibition of MIP1β-induced migration of CCR1 transfectants (human CCR1 [4]): not inhibited; block of MCP-4/CCR2-mediated monocyte migration [5]: block; inhibition of the activity of modified (acetylated) RANTES to attract monocytes ([6]; 30 μM compound): not inhibited
4 | CC(C)CCCC(C)[C@H]1CCC2C3CCC4C[C@@H](CCC=C(c5cc(Cl)c(O)c(C(=O)NCC(=O)O)c5)c5cc(Cl)c(O)c(C(=O)NCC(=O)O)c5)CC[C@]4(C)C3CC[C@@]21C (stereo partly drawn) [Compound 12] |  |  |  |  | pIC50 (human CCR1 [2]): 5.00
5 | CSCC[C@H](NC(=O)c1cc(C(=CCC[C@H]2CC[C@@]3(C)C(CCC4C3CC[C@@]3(C)C4CC[C@@H]3C(C)CCCC(C)C)C2)c2cc(Cl)c(O)c(C(=O)N[C@@H](CCSC)C(=O)O)c2)cc(Cl)c1O)C(=O)O (stereo partly drawn) [Compound 15] | 0.82 µM | retained activity |  |  | 
6 | CC(C)CCCC(C)[C@H]1CCC2C3CCC4C[C@@H](CCC=C(c5cc(Cl)c(OCc6cccc(C(=O)O)c6)c(C(=O)O)c5)c5cc(Cl)c(OCc6cccc(C(=O)O)c6)c(C(=O)O)c5)CC[C@]4(C)C3CC[C@@]21C (stereo partly drawn) [Compound 2] | 10 µM | retain activity | 10 µM | inhibit | inhibition of MIP1-α-induced monocyte migration [7]: not reduced; inhibition of MIP1-β-induced monocyte migration [8]: very weak inhibitor; reduction in cell numbers, MIP1-β-induced monocyte migration [8]: less than 10%; inhibition of MIP1α-induced migration of CCR1 transfectants (human CCR1 [3]): not inhibited; inhibition of MIP1β-induced migration of CCR1 transfectants (human CCR1 [4]): not inhibited; block of MCP-4/CCR2-mediated monocyte migration [5]: block
7 | CC(C)CCCC(C)C1CCC2C3CCC4CC(CCC=C(c5cc(Cl)c(OCc6ccc(C(=O)O)cc6)c(C(=O)O)c5)c5cc(Cl)c(OCc6ccc(C(=O)O)cc6)c(C(=O)O)c5)CCC4(C)C3CCC12C (stereo not drawn) [Compound 5] |  | inactive |  |  | inhibition of MIP1-α-induced monocyte migration [7]: neither MiP1-α- nor MIP1-β-induced monocyte migration was inhibited; inhibition of MIP1-β-induced monocyte migration [8]: neither MiP1-α- nor MIP1-β-induced monocyte migration was inhibited; inhibition of the activity of modified (acetylated) RANTES to attract monocytes ([6]; 10 μM compound): no statistical difference
8 | CC(C)CCCC(C)[C@H]1CCC2C3CCC4C[C@@H](CCC=C(c5cc(Cl)c(OCc6cccc(B(O)O)c6)c(C(=O)O)c5)c5cc(Cl)c(OCc6cccc(B(O)O)c6)c(C(=O)O)c5)CC[C@]4(C)C3CC[C@@]21C (stereo partly drawn) [Compound 9] | 2.2 µM |  | 4 µM | inhibit | 
